Source: US8933195B2, “Histone deacetylase inhibitors and synthetic method thereof and use thereof in manufacture of medicaments” (Nanjing Yoko Biomedical R & D Ltd., priority 2011, dated 2015)
Read-outs that look alike come from different tables or passages of the source.

How the values were obtained:
Incap = assay: MTT cancer cell growth inhibition; type: cell-based; conditions: 72 h
HDAC7 = biological target: T1, HDAC7 (Homo sapiens, UniProt Q8WUI4); assay: Measurement of biochemical activities of HDAC (fluorescently-labeled acetylated lysine substrate)
T1 sequence (Q8WUI4 1-952): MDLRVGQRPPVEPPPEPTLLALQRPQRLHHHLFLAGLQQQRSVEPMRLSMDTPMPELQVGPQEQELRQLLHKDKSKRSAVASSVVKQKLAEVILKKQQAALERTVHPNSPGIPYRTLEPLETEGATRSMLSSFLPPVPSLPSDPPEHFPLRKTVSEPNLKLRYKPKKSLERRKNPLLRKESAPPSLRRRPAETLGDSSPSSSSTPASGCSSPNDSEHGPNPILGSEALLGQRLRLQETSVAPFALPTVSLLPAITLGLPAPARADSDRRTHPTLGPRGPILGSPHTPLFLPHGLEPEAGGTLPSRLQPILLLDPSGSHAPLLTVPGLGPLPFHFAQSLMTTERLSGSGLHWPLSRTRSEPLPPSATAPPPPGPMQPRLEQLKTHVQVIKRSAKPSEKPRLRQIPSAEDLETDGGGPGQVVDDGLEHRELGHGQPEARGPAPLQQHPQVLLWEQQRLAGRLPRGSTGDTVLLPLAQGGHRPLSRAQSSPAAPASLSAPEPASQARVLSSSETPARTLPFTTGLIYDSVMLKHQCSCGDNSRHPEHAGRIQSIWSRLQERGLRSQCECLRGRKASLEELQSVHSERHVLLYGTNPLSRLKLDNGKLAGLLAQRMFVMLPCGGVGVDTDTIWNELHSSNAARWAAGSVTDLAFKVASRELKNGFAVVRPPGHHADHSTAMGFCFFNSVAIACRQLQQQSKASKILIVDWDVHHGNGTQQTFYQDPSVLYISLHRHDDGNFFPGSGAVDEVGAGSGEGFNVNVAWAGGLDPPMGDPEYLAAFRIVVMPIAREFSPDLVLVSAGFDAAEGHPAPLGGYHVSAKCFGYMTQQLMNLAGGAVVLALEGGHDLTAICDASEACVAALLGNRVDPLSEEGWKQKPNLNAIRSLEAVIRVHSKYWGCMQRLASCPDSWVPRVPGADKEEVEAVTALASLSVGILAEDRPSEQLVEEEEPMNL
Experimental: (§1) 1. Measurement principles: the measurement of biochemical activities of compounds is determined according to the degree of the compounds inhibiting the deacylation of HDAC enzyme. After the fluorescently-labeled substrate containing acetylated lysine side chain reacts with the HDAC enzyme, the fluorogenic substrate is deacetylated. After the deacetylated fluorescently-labeled substrate is cracked by the enzyme, a fluorescent substance is released. The fluorescent substance generates emitting light of 460 nm under the excitation of light of 360 nm.
(§2) 2. Detailed steps: the substrate of HDAC is diluted to […] (the reaction concentration is […]) with a reaction buffer. HDAC enzyme is diluted to a proper concentration. The compounds to be detected in different concentrations are added. The mixture reacts for 30 min at 37. Then the developer with the same volume and twice concentration of the substrate is added into the mixture. The mixture is incubated for 15 min at room temperature. Finally, the reading is measured with a micro plate scanner. The excitation light is 360 nm, the emitting light is 460 nm, and the data is processed with Prime 4 software.

HDAC1 = HDAC1 (Homo sapiens, UniProt Q13547); assay: as above
Experimental: as §1, §2

[1] = system: MCF-7 (human breast cancer cells); assay: MTT cancer cell growth inhibition; type: cell-based; conditions: MCF7, 72 h
Description: (§3) 1. Experimental principles: the inhibition of cancer cell growth with compounds is detected by an MTT method. The principle of the MTT method is as follows: yellow thiazolyl blue may penetrate through cell membranes and enter into cells, succinate dehydrogenase in living cell mitochondria may reduce exogenous MTT into water-insoluble ianthinus acicular Formazan crystals which deposit in the cells, the crystals can be dissolved with dimethyl sulfoxide (DMSO), the optical density of the crystals is detected with an enzyme-linked immunometric meter at the wavelength of 490 nm/570 nm, and the number of cells can be indirectly reflected.
(§4) 2. Experimental materials: the used cancer cell lines are Hela (human cervical cancer cells), MCF-7 (human breast cancer cells), BGC-823 (human gastric cancer cells), A549 (human lung cancer cells), HT1080 (human fibrosarcoma cells), A431 (human epidermal squamous cell carcinoma cells), HUVEC (human umbilical vein endothelial cells), DU145 (human prostate cancer cells), K562 (human leukemia cells), U937 (human leukemia cells), Pac-1 (human pancreatic cancer cells), and MOLT-4 (human acute lymphoblastic leukemia cells), which are cultured with a DMEM+10% FBS culture medium or a 1640+10% FBS culture medium, respectively.
(§5) Experimental groups: 190 μl cell suspension+10 μl pharmaceuticals in different concentrations (the final concentration is 10^−5-10^−10M)
(§6) Negative control group: 190 μl cell suspension+10 μl 2% DMSO (the final concentration of DMSO is 0.1%)
(§7) a) Cells are inoculated on a 96-pore plate, with 1500 cells and 190 μl for each hole, and cultured overnight in a 5% CO2 incubator at 37.
(§8) b) 10 μl of different pharmaceuticals is added into each hole the next day, with the final concentration of the pharmaceuticals of 10^−5-10^−10M and three parallel holes, and incubated for 72 h in a 5% CO2 incubator at 37.
(§9) c) 20 μl of 5 mg/mL MTT is added into each hole, and incubated for 4 h in a 5% CO2 incubator at 37.
(§10) d) Supernatant is removed. 100 μl of DMSO is added into each hole and vibrated.
(§11) e) The reading is 570 nm. The cell survival rate is calculated.

[2] = system: BGC-823 (human gastric cancer cells); assay: MTT cancer cell growth inhibition; type: cell-based; conditions: 72 h, read-out: GI50 BGC823
Description: as §3, §4, §5, §6, §7, §8, §9, §10, §11

[3] = system: DU145 (human prostate cancer cells); assay: MTT cancer cell growth inhibition; type: cell-based; conditions: DU-145, 72 h
Description: as §3, §4, §5, §6, §7, §8, §9, §10, §11

PANC-1 = assay: MTT cancer cell growth inhibition; type: cell-based; conditions: Homo sapiens, 72 h
Description: as §3, §4, §5, §6, §7, §8, §9, §10, §11

[4] = system: HT1080 (human fibrosarcoma cells); assay: MTT cancer cell growth inhibition; type: cell-based; conditions: HT-1080, 72 h
Description: as §3, §4, §5, §6, §7, §8, §9, §10, §11

[5] = system: MOLT-4 (human acute lymphoblastic leukemia cells); assay: MTT cancer cell growth inhibition; type: cell-based; conditions: 72 h
Description: as §3, §4, §5, §6, §7, §8, §9, §10, §11

[6] = system: Hela (human cervical cancer cells); assay: MTT cancer cell growth inhibition; type: cell-based; conditions: 72 h
Description: as §3, §4, §5, §6, §7, §8, §9, §10, §11

[7] = system: A549 (human lung cancer cells); assay: MTT cancer cell growth inhibition; type: cell-based; conditions: 72 h
Description: as §3, §4, §5, §6, §7, §8, §9, §10, §11

[8] = system: U937 (human leukemia cells); assay: MTT cancer cell growth inhibition; type: cell-based; conditions: U-937, 72 h
Description: as §3, §4, §5, §6, §7, §8, §9, §10, §11

Chain of HDAC1 (Q13547 whole entry, species assumed): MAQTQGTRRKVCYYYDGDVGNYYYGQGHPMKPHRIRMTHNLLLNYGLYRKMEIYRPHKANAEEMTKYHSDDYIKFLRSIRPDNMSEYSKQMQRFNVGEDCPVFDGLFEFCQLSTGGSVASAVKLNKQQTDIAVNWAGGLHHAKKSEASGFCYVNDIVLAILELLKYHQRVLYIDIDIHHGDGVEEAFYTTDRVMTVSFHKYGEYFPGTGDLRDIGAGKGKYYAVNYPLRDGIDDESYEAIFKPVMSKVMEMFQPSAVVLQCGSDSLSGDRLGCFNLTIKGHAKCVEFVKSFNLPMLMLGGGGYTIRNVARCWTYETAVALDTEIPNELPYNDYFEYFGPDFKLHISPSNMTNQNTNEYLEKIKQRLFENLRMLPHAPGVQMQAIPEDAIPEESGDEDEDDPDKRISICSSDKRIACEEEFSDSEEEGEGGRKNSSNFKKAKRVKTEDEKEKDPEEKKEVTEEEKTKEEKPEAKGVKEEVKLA

GI50 (Incap) | IC50 HDAC7 (HDAC7) | IC50 (HDAC1; read-out: IC50 HDAC1) | GI50 [1] | GI50 [2] | GI50 [3] | GI50 (PANC-1) | GI50 [4] | GI50 [5] | GI50 [6] | GI50 [7] | GI50 [8] | Structure (SMILES) | IC50 (HDAC1)
73.5 µM | no activity | < 10 µM | 3.65 µM | 2.1 µM | 0.65 µM | 0.65 µM | 19.6 µM | 0.01 µM | 3.05 µM | 21.3 µM | 0.34 µM | C/C=C1\NC(=O)c2csc(n2)CNC(=O)C[C@@H](/C=C/CCSC(=O)CCCCCCC)OC(=O)[C@H](C)N(C)C1=O [Compound 5-1] | –
4.26 µM | no activity | < 10 µM | 0.006 µM | 1.02 µM | 2.1 µM | 3.01 µM | 0.65 µM | 0.05 µM | 1 µM | 0.01 µM | 10.2 µM | C/C=C1\NC(=O)c2csc(n2)[C@H](Cc2ccc(O)cc2)NC(=O)C[C@@H](/C=C/CCSC(=O)CCCCCCC)OC(=O)[C@H](C(C)C)NC1=O [Compound 4-4] | –

Second part, the molecule before the results:

Structure (SMILES) | GI50 (Incap) | IC50 HDAC7 (HDAC7) | IC50 (HDAC1; read-out: IC50 HDAC1) | GI50 [1] | GI50 [2] | GI50 [3] | GI50 (PANC-1) | GI50 [4] | GI50 [5] | GI50 [6] | GI50 [7] | GI50 [8] | IC50 (HDAC1)
C/C=C1\NC(=O)c2csc(n2)CNC(=O)C[C@@H](/C=C/CCSC(=O)CCCCCCC)OC(=O)[C@H](C(C)C)N(C)C1=O [Compound 5-2] | 5.03 µM | no activity | < 10 µM | 0.69 µM | 1.3 µM | 6.41 µM | 21.4 µM | 1.05 µM | 10.3 µM | 0.35 µM | 0.24 µM | 0.02 µM | –
C/C=C1\NC(=O)c2csc(n2)[C@H](C(C)C)NC(=O)C[C@@H](/C=C/CCSC(=O)CCCCCCC)OC(=O)[C@H](C(C)C)NC1=O [Compound 4-1] | 1.03 µM | no activity | – | 0.13 µM | 0.23 µM | 1.65 µM | 1.34 µM | 0.85 µM | 4.02 µM | 0.26 µM | 0.54 µM | 1.56 µM | < 10 µM
C/C=C1\NC(=O)c2ccnc(c2)CNC(=O)C[C@@H](/C=C/CCSC(=O)CCCCCCC)OC(=O)[C@H](C(C)C)NC1=O [Compound 2-7] | 0.65 µM | no activity | < 10 µM | 0.09 µM | 0.1 µM | 0.006 µM | 0.8 µM | 0.08 µM | 2.1 µM | 0.1 µM | 0.09 µM | 0.009 µM | –
